# Biological target: USP30 (Homo sapiens (Human), UniProt Q70CQ3)
# Test: USP30 Biochemical IC50 Assay
# Conditions: fluorescence polarisation, TAMRA labelled peptide linked to ubiquitin; 30 min pre-incubation, read after 2 h; read-out: IC50 range
# Description: Reactions were performed in duplicate in black 384 well plates (small volume, Greiner 784076) in a final reaction volume of 21 μl. Either 1 μl of 50% DMSO or diluted compound was added to the plate. […] Enzyme and compound were incubated for 30 min at room temp. Reactions were initiated by the addition of 50 nM of TAMRA labelled peptide linked to ubiquitin via an iso-peptide bond as fluorescence polarisation substrate. Reactions were read immediately after addition of substrate and following a 2 h incubation at room temperature. Readings were performed on a Pherastar Plus (BMG Labtech). λ Excitation 540 nm; λ Emission 590 nm.
# Sequence of USP30 (Q70CQ3 57-517): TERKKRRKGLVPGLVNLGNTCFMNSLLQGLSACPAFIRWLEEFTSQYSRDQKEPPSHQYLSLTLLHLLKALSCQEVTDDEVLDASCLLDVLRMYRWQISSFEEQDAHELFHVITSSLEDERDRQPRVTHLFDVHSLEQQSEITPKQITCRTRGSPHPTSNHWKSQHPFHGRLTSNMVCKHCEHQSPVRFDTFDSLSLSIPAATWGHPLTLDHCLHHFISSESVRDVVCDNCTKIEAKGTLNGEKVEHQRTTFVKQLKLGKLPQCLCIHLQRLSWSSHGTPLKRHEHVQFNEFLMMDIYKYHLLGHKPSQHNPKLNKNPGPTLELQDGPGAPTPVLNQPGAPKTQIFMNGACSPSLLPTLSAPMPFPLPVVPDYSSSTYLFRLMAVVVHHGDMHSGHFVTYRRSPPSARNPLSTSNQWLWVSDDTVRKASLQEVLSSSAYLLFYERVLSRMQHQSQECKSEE
row,Structure (SMILES),IC50
1,"C[C@@H]1CN(C#N)C[C@H]1c1cc(-c2ccncc2)n[nH]1 (relative stereo) [Example 48, Trans-3-methyl-4-(3-(pyridin-4-yl)-1H-pyrazol-5-yl)pyrrolidine-1-carbonitrile]",1 to 10 µM
2,"C[C@@H]1CN(C#N)C[C@H]1c1cc(-c2ccccc2)n[nH]1 (relative stereo) [Example 49, Trans-3-methyl-4-(3-phenyl-1H-pyrazol-5-yl)pyrrolidine-1-carbonitrile]",1 to 10 µM
3,"C[C@@H]1CN(C#N)C[C@H]1c1nc(-c2ccccc2)n[nH]1 (relative stereo) [Example 113, Trans 3-methyl-4-(3-phenyl-1H-1,2,4-triazol-5-yl)pyrrolidine-1-carbonitrile]",1 to 10 µM
4,"CC[C@@H]1CN(C#N)C[C@H]1c1cc(-c2cccc(-c3ccccc3)c2)n[nH]1 (single isomer, unassigned) [Example 44, Trans-3-(3-([1,1′-biphenyl]-3-yl)-1H-pyrazol-5-yl)-4-ethylpyrrolidine-1-carbonitrile]",1 to 10 µM
5,"N#CN1CCC(c2nc3cc(-c4ccncc4)cnc3[nH]2)C1 (single isomer, unassigned) [Example 82, 3-(6-(Pyridin-4-yl)-3H-imidazo[4,5-b]pyridin-2-yl)pyrrolidine-1-carbonitrile]",1 to 10 µM
6,"N#Cc1ccc(-c2cnc3[nH]c(C4CCN(C#N)C4)nc3c2)cc1 (single isomer, unassigned) [Example 91, 3-(6-(4-Cyanophenyl)-3H-imidazo[4,5-b]pyridin-2-yl)pyrrolidine-1-carbonitrile]",0.1 to 1 µM
7,"CNC(=O)c1cccc(-c2cnc3[nH]c(C4CCN(C#N)C4)nc3c2)c1 (single isomer, unassigned) [Example 92, 3-(2-(1-Cyanopyrrolidin-3-yl)-3H-imidazo[4,5-b]pyridin-6-yl)-N-methylbenzamide]",1 to 10 µM
8,"CNC(=O)c1cccc(-c2cnc3[nH]c(C4CCN(C#N)C4)nc3c2)c1 (single isomer, unassigned) [Example 93, 3-(2-(1-Cyanopyrrolidin-3-yl)-3H-imidazo[4,5-b]pyridin-6-yl)-N-methylbenzamide]",0.1 to 1 µM
9,"C[C@H]1CN(C#N)C[C@@H]1c1nc2cc(-c3ccccc3)cnc2[nH]1 (single isomer, unassigned) [Example 102, Trans-3-methyl-4-(6-phenyl-3H-imidazo[4,5-b]pyridin-2-yl)pyrrolidine-1-carbonitrile]",0.1 to 1 µM
10,"C[C@H]1CN(C#N)C[C@@H]1c1nc2cc(-c3ccccc3)cnc2[nH]1 (single isomer, unassigned) [Example 103, Trans-3-methyl-4-(6-phenyl-3H-imidazo[4,5-b]pyridin-2-yl)pyrrolidine-1-carbonitrile]",0.1 to 1 µM
11,"C[C@H]1CN(C#N)C[C@@H]1c1nc2cc(-c3ccccc3)ccc2[nH]1 (single isomer, unassigned) [Example 104, Trans-3-methyl-4-(5-phenyl-1H-benzo[d]imidazol-2-yl)pyrrolidine-1-carbonitrile]",0.1 to 1 µM
12,"C[C@@H]1CN(C#N)C[C@H]1c1n[nH]c(-c2cccc(-c3ccccc3)c2)n1 (single isomer, unassigned) [Example 116, Trans-3-(3-([1,1′-biphenyl]-3-yl)-1H-1,2,4-triazol-5-yl)-4-methylpyrrolidine-1-carbonitrile]",0.1 to 1 µM
13,"N#Cc1ccc2ccc(-c3nc([C@@H]4CCCN4C#N)no3)cc2n1 (stereo in doubt) [Example 179, 7-(3-(1-Cyanopyrrolidin-2-yl)-1,2,4-oxadiazol-5-yl)quinoline-2-carbonitrile]",1 to 10 µM
14,"N#Cc1cccc(-c2cc(C3CCN(C#N)C3)[nH]n2)c1 (centres unmarked) [Example 1, 3-(3-(3-Cyanophenyl)-1H-pyrazol-5-yl)pyrrolidine-1-carbonitrile]",0.1 to 1 µM
15,"N#Cc1ccc(-c2cc(C3CCN(C#N)C3)[nH]n2)cc1 (centres unmarked) [Example 2, 3-(3-(4-Cyanophenyl)-1H-pyrazol-5-yl)pyrrolidine-1-carbonitrile]",1 to 10 µM
16,"CNC(=O)c1ccc(-c2cc(C3CCN(C#N)C3)[nH]n2)cn1 (centres unmarked) [Example 3, 5-(5-(1-Cyanopyrrolidin-3-yl)-1H-pyrazol-3-yl)-N-methylpicolinamide]",1 to 10 µM
17,"N#CN1CCC(c2cc(-c3ccc(C(N)=O)cc3)n[nH]2)C1 (centres unmarked) [Example 4, 4-(5-(1-Cyanopyrrolidin-3-yl)-1H-pyrazol-3-yl)benzamide]",1 to 10 µM
18,"CN1CCN(c2ccc(-c3cc(C4CCN(C#N)C4)[nH]n3)cc2)CC1 (centres unmarked) [Example 5, 3-(3-(4-(4-Methylpiperazin-1-yl)phenyl)-1H-pyrazol-5-yl)pyrrolidine-1-carbonitrile]",0.1 to 1 µM
19,"N#CN1CCC(c2cc(-c3cccc(C(N)=O)c3)n[nH]2)C1 (centres unmarked) [Example 6, 3-(5-(1-Cyanopyrrolidin-3-yl)-1H-pyrazol-3-yl)benzamide]",1 to 10 µM
20,"CC(=O)Nc1cccc(-c2cc(C3CCN(C#N)C3)[nH]n2)c1 (centres unmarked) [Example 7, N-(3-(5-(1-Cyanopyrrolidin-3-yl)-1H-pyrazol-3-yl)phenyl)acetamide]",1 to 10 µM
21,"CN(C)C(=O)c1cccc(-c2cc(C3CCN(C#N)C3)[nH]n2)c1 (centres unmarked) [Example 8, 3-(5-(1-Cyanopyrrolidin-3-yl)-1H-pyrazol-3-yl)-N,N-dimethylbenzamide]",0.1 to 1 µM
22,"CC(=O)Nc1ccc(-c2cc(C3CCN(C#N)C3)[nH]n2)cc1 (centres unmarked) [Example 9, N-(4-(5-(1-Cyanopyrrolidin-3-yl)-1H-pyrazol-3-yl)phenyl)acetamide]",1 to 10 µM
23,"Cc1cc(-c2cc(C3CCN(C#N)C3)[nH]n2)ccn1 (centres unmarked) [Example 11, 3-(3-(2-Methylpyridin-4-yl)-1H-pyrazol-5-yl)pyrrolidine-1-carbonitrile]",1 to 10 µM
24,"N#CN1CCC(c2cc(-c3cccc(N4CCCCC4)c3)n[nH]2)C1 (centres unmarked) [Example 12, 3-(3-(3-(Piperidin-1-yl)phenyl)-1H-pyrazol-5-yl)pyrrolidine-1-carbonitrile]",0.1 to 1 µM
25,"N#CN1CCC(c2cc(-c3cccc(-c4ccccc4)c3)n[nH]2)C1 (centres unmarked) [Example 14, 3-(3-([1,1′-Biphenyl]-3-yl)-1H-pyrazol-5-yl)pyrrolidine-1-carbonitrile]",0.1 to 1 µM

# More lines, now with the values ahead:
row,IC50,Structure (SMILES)
1,0.1 to 1 µM,"C[C@@H]1CN(C#N)C[C@H]1c1cc(-c2cccc(-c3ccccc3)c2)n[nH]1 (relative stereo) [Example 19, Trans-3-(3-([1,1′-biphenyl]-3-yl)-1H-pyrazol-5-yl)-4-methylpyrrolidine-1-carbonitrile]"
2,0.1 to 1 µM,"CC[C@@H]1CN(C#N)C[C@H]1c1cc(-c2cccc(-c3ccccc3)c2)n[nH]1 (relative stereo) [Example 43, trans-3-(3-([1,1′-biphenyl]-3-yl)-1H-pyrazol-5-yl)-4-ethylpyrrolidine-1-carbonitrile]"
3,0.1 to 1 µM,"N#CN1C[C@@H](c2cc(-c3cccc(-c4ccccc4)c3)n[nH]2)[C@H](C2CC2)C1 (relative stereo) [Example 46, Trans-3-(3-([1,1′-biphenyl]-3-yl)-1H-pyrazol-5-yl)-4-cyclopropylpyrrolidine-1-carbonitrile]"
4,< 0.1 µM,"C[C@@H]1CN(C#N)C[C@H]1c1n[nH]c(-c2cccc(-c3ccccc3)c2)n1 (relative stereo) [Example 114, Trans-3-(3-([1,1′-biphenyl]-3-yl)-1H-1,2,4-triazol-5-yl)-4-methylpyrrolidine-1-carbonitrile]"
5,0.1 to 1 µM,"N#CN1CCC(c2[nH]nc(-c3cccc(-c4ccccc4)c3)c2F)C1 (single isomer, unassigned) [Example 16, 3-(3-([1,1′-Biphenyl]-3-yl)-4-fluoro-1H-pyrazol-5-yl)pyrrolidine-1-carbonitrile]"
6,< 0.1 µM,"N#CN1CCC(c2[nH]nc(-c3cccc(-c4ccccc4)c3)c2F)C1 (single isomer, unassigned) [Example 17, 3-(3-([1,1′-Biphenyl]-3-yl)-4-fluoro-1H-pyrazol-5-yl)pyrrolidine-1-carbonitrile]"
7,0.1 to 1 µM,"N#CN1CCC(c2cc(-c3cccc(-c4ccccc4)n3)[nH]n2)C1 (single isomer, unassigned) [Example 41, 3-(5-(6-Phenylpyridin-2-yl)-1H-pyrazol-3-yl)pyrrolidine-1-carbonitrile]"
8,0.1 to 1 µM,"N#CN1CCC(c2cc(-c3cccc(-c4ccccc4)n3)[nH]n2)C1 (single isomer, unassigned) [Example 42, 3-(5-(6-Phenylpyridin-2-yl)-1H-pyrazol-3-yl)pyrrolidine-1-carbonitrile]"
9,0.1 to 1 µM,"CC[C@@H]1CN(C#N)C[C@H]1c1cc(-c2cccc(-c3ccccc3)c2)n[nH]1 (single isomer, unassigned) [Example 45, Trans-3-(3-([1,1′-biphenyl]-3-yl)-1H-pyrazol-5-yl)-4-ethylpyrrolidine-1-carbonitrile]"
10,0.1 to 1 µM,"N#CN1CCC(c2nc3cc(-c4ccncc4)cnc3[nH]2)C1 (single isomer, unassigned) [Example 81, 3-(6-(Pyridin-4-yl)-3H-imidazo[4,5-b]pyridin-2-yl)pyrrolidine-1-carbonitrile]"
11,0.1 to 1 µM,"N#Cc1ccc(-c2cnc3[nH]c(C4CCN(C#N)C4)nc3c2)cc1 (single isomer, unassigned) [Example 90, 3-(6-(4-Cyanophenyl)-3H-imidazo[4,5-b]pyridin-2-yl)pyrrolidine-1-carbonitrile]"
12,< 0.1 µM,"N#CN1CCC(c2cc(-c3cccc(-c4ccccc4)c3)no2)C1 (single isomer, unassigned) [Example 118, 3-(3-([1,1′-Biphenyl]-3-yl)isoxazol-5-yl)pyrrolidine-1-carbonitrile]"
13,< 0.1 µM,"N#CN1CCC(c2cc(-c3cccc(-c4ccccc4)c3)no2)C1 (single isomer, unassigned) [Example 119, 3-(3-([1,1′-Biphenyl]-3-yl)isoxazol-5-yl)pyrrolidine-1-carbonitrile]"

# — patent publication US11352339B2 (MISSION THERAPEUTICS LIMITED, priority 2016, dated 2022)
